How the values were obtained:
[1] = Measurement of relative permittivity (LCR meter, 100 kHz, 1 V); type: physicochemical
Procedure: The sample (100 mL) was tested for relative permittivity at 25° C. at a frequency of 100 kHz and a voltage of 1 V by using an LCR meter (HP4284A, with HP16452A electrode for liquid, from Hewlett Packard).

[2] = Measurement of vapor pressure (vapor-liquid equilibrium apparatus)
Procedure: The sample (80 mL in a cell) was tested for vapor pressure at (25° C.) by using a vapor-liquid equilibrium measuring apparatus (VLE autolabo, from TOYO KOATSU Co., Ltd.).

[3] = Solubility of ingredient (B) in tooth whitening ingredient (A), visual check for undissolved residues; conditions: for Solubility in PEG#300 (Av. MW 280-320): 0.1 g in 100 g PEG#300, 37° C.; for Solubility in 1,3-butylene glycol: 0.1 g in 100 g 1,3-butylene glycol
Procedure: (§1) If the ingredient (B) is liquid, the term “is precipitated by an aqueous solution of calcium chloride” means that the ingredient (B) forms precipitates or becomes turbid.
A sample (0.1 g) of the ingredient (B) is added to 100 g of the tooth whitening ingredient (A), and the resulting mixture is stirred at 37° C. for 16 hours and allowed to stand at 37° C. for 24 hours. The mixture is visually examined for undissolved residues of the ingredient (B).
Criterion for Overall Rating: • ◯: More than 0.1 g is soluble in 100 g of ingredient (A) and less than 0.1 g is soluble in 100 g of aqueous solution of 1 mmol/L calcium chloride.
X: Other than specified above.

[4] = Solubility of ingredient (B) in aqueous solution of 1 mmol/L calcium chloride; conditions: 0.1 g in 100 g aqueous 1 mmol/L calcium chloride, 37° C.
Procedure: as §1
Solubility of the ingredient (B) in an aqueous solution of 1 mmol/L calcium chloride was determined in the same way as above.

Relative Permittivity (at 25° C.) [1] | Vapor pressure kPa (at 25° C.) [2] | Compound | Solubility in Aqueous solution of 1 mmol/L calcium chloride [4] | further results
26.2 | 0 kPa | CC(O)COC(C)CO (stereo not shown) [Dipropylene glycol] | – | –
– | – | CCCCCCCC/C=C\CCCCCCCCCCCC(=O)O [Erucic acid] | X (solubility less than 0.1 g (with undissolved residues)) | Solubility in PEG#300 (Av. MW 280-320) [3]: ◯ (solubility more than 0.1 g (no undissolved residues))
24.6 | 7948 kPa | CCO [Ethanol] | – | –
42.5 | 3 kPa | OCC(O)CO [Glycerin] | – | –
19.9 | 5819 kPa | CC(C)O [Isopropanol] | – | –
– | – | CCCCCCCCCCCC(=O)O [Lauric acid, reference compound] | ◯ (solubility more than 0.1 g (no undissolved residues)) | Solubility in 1,3-butylene glycol ([3]; 37° C.): ◯ (solubility more than 0.1 g (no undissolved residues))
– | – | CCCCCCCCCCCCCC(=O)O [Myristic acid] | X (solubility less than 0.1 g (with undissolved residues)) | Solubility in PEG#300 (Av. MW 280-320) [3]: ◯ (solubility more than 0.1 g (no undissolved residues))
– | – | CCCCCCCC/C=C\CCCCCCCC(=O)O [Oleic acid] | X (solubility less than 0.1 g (with undissolved residues)) | Solubility in PEG#300 (Av. MW 280-320) [3]: ◯ (solubility more than 0.1 g (no undissolved residues))
– | – | CCCCCC/C=C\CCCCCCCC(=O)O [Palmitoleic acid] | X (solubility less than 0.1 g (with undissolved residues)) | Solubility in 1,3-butylene glycol ([3]; 37° C.): ◯ (solubility more than 0.1 g (no undissolved residues)); Solubility in PEG#300 (Av. MW 280-320) [3]: ◯ (solubility more than 0.1 g (no undissolved residues)); Solubility in Propylene glycol ([3]; 0.1 g in 100 g Propylene glycol, 37° C.): ◯ (solubility more than 0.1 g (no undissolved residues))
32.0 | 1 kPa | CC(O)CO (stereo not shown) [Propylene glycol] | – | –
– | – | [Cl-].[Cl-].[Zn+2] [Zinc chloride, reference compound] | ◯ (solubility more than 0.1 g (no undissolved residues)) | Solubility in 1,3-butylene glycol ([3]; 37° C.): ◯ (solubility more than 0.1 g (no undissolved residues))

Compound | Relative Permittivity (at 25° C.) [1] | Vapor pressure kPa (at 25° C.) [2] | Solubility in Aqueous solution of 1 mmol/L calcium chloride [4] | further results
CC(O)CCO (stereo not shown) [1,3-dibutylene glycol] | 33.5 | 108 kPa | – | –
OCCOCCO [Diethylene glycol] | 33.0 | 11 kPa | – | –
OCCO [Ethylene glycol] | 37.7 | 59 kPa | – | –
O [Water] | 78.3 | – | – | –

Source: patent publication US20070122360A1, “Nonaqueous gel composition for tooth whitening and tooth whitening set” (LION CORPORATION, priority 2003, published 2007)
